# Laboratory results as given in patent US7638526B2, “Azetidine derivatives useful in treating pain, diabetes and disorders of lipid metabolism” (Schering Corporation, priority 2006, dated 2009).
# Key:
# Type in all cases: cell-based
# human GPR119 = biological target: T1, human GPR119 (Homo sapiens, UniProt Q8TDV5); assay: GPR119 screening assay (LANCE cAMP, HEK 293 cells stably transfected with human GPR119); details: HEK 293 cells stably transfected with human GPR119, LANCE cAMP; read-out: GPR 119 cAMP EC50
# T1 construct: expressed in transfected cells
# T1 sequence (Q8TDV5 1-335): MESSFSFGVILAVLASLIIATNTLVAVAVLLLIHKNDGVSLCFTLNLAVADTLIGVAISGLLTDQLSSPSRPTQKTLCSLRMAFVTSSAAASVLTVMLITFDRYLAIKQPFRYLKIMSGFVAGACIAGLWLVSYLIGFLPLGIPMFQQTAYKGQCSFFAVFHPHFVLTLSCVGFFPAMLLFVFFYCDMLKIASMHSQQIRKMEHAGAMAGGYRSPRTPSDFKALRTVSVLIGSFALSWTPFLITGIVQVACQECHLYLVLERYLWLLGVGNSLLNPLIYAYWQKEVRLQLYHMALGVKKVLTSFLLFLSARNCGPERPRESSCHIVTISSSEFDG
# human Cav3.2 [1] = biological target: T2, human Cav3.2 (Homo sapiens, UniProt O95180); assay: Ionworks screen for hCaV3.2 (IonWorks HT voltage clamp, T-type calcium current); details: IonWorks (IW) screen
# T2 construct: expressed in transfected cells
# T2 sequence (O95180 whole entry): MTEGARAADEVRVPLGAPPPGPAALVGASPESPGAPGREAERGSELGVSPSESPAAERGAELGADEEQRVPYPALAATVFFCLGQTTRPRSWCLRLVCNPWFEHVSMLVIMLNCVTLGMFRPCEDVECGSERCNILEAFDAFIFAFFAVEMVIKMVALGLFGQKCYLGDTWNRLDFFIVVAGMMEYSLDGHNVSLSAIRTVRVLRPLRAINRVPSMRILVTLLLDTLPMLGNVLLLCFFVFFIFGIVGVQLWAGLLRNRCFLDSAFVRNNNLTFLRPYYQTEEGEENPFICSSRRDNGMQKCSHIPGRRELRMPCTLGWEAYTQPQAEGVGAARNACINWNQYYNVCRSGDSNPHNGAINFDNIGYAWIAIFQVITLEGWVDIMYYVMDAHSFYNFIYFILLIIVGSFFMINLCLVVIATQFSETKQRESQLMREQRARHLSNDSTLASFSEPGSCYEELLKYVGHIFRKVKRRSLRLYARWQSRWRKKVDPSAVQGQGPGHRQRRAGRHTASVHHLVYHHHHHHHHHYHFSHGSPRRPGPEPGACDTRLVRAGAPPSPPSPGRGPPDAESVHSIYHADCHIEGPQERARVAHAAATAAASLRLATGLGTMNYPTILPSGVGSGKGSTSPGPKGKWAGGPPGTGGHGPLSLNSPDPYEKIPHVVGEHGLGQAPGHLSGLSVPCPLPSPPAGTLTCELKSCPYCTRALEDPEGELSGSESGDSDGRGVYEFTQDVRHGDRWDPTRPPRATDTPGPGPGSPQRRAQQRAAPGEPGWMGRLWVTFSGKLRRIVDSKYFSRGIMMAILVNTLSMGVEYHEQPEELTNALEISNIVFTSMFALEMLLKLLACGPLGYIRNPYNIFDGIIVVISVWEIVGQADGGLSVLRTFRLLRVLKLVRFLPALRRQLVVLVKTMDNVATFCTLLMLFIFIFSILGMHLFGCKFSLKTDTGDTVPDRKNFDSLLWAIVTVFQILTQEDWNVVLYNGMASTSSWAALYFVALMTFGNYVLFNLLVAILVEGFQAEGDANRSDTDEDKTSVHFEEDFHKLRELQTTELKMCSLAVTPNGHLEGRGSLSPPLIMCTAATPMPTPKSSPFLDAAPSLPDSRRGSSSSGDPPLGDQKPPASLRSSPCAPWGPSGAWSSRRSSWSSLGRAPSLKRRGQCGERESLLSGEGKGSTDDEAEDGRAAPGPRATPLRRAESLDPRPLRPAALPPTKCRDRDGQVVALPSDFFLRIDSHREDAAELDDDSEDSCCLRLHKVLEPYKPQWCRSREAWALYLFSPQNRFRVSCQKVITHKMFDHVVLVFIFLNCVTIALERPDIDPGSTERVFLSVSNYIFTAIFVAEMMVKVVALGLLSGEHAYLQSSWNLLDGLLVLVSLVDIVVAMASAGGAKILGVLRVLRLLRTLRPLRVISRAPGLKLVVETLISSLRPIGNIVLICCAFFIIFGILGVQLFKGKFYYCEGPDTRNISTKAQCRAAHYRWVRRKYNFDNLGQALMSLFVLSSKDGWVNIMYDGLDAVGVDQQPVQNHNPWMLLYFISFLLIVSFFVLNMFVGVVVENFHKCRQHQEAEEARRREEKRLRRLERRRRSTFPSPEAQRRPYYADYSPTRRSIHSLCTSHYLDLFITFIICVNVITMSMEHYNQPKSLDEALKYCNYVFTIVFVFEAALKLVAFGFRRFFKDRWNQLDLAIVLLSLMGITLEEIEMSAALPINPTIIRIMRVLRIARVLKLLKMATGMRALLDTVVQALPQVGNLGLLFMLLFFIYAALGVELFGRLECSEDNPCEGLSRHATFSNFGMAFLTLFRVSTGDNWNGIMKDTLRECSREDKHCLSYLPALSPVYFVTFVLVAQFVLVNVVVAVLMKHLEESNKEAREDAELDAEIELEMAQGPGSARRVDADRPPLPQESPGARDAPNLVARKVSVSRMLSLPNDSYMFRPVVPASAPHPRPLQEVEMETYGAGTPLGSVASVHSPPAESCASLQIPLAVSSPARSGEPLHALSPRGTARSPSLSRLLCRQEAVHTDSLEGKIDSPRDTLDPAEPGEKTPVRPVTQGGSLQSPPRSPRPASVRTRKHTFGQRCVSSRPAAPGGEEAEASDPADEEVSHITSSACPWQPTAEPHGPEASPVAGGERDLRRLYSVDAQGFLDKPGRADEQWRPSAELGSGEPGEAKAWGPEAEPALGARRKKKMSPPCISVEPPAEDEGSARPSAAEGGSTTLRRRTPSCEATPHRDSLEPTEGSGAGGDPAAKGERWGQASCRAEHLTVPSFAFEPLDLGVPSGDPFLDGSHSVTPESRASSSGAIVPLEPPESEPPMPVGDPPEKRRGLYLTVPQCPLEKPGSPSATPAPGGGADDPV
# Excerpt: (§1) Functional evaluation of voltage-gated ion channels was used to determine potency and/or single concentration efficacy of proprietary compounds. Two different methodologies were used to measure ion currents: the IonWorks HT (Molecular Devices, Sunnyvale, Calif.) a moderate throughput voltage clamp screening platform that utilizes 96-well compound plates and conventional whole cell patch clamp for lower throughput, higher fidelity determinations.
# HEK cells were transiently transfected and then selected for stable heterologous expression of different channel proteins of interest. Calcium channel cell lines expressed a resting potassium current, human Kir2.1, and the pore forming α-subunit of voltage-gated calcium channels. In the case of Cav2.1 cells the auxiliary subunit, β2a, was also expressed. Calcium channel lines that were used to generate the data in this document expressed either human Cav3.2, rat Cav3.2 or human Cav2.1. The human heart sodium channel, hNav1.5, was stably expressed in CHO cells. These cells were licensed from the University of Pennsylvania.
# Cell lines were grown at 37° C. in humidified incubators, equilibrated with 95% air/5% CO2. CHO cells were grown in Ham's F-12 medium. HEK cells were grown in DMEM. All media were supplemented with 10% heat-inactivated fetal bovine serum, penicillin, streptomycin and appropriate selection antibiotics (zeocin, geneticin and/or hygromycin). Cells were passaged when 80% confluent or less.
# Ionworks Screen for hCaV3.2
# The extracellular buffer for experiments using this instrument contained the following (mM) (NaCl 125, HEPES 10, KCl 5.4, CaCl2 1.8, MgCl2 1.8, 0.2 BaCl2 pH 7.35). The IonWorks uses amphotericin to gain electrical access to the cell interior. The internal solution contained (mM concentrations): 130 K-gluconate, 20 KCl, 5 HEPES-KOH (pH 7.25), 2 CaC12, 1 MgCl2. Amphotericin added at 5 mg in 65 ml when present (in 650 μl DMSO). All internal and external solutions for this experiment contain 1% DMSO. Cells were acutely trypsinized from a T-75 flask and resuspended in extracellular buffer at a density of 2×10^5 cells/ml.
# Experiments were performed at room temperature, Transmembrane potential was held at −100 mV for 5 seconds prior to running the voltage protocol. During this time leak currents were measured during a step to −110 mV (200 milliseconds). T-type calcium currents were activated with a 250 millisecond step to −20 mV. This depolarization step was repeated for a total of 10 pulses with an interpulse interval of 1 second. Data were excluded if the following acceptance criteria were not met: total resistance for the pre-compound scan >65 MΩ, pre-compound current >250 pA, post compound total resistance >50 MΩ.
# T-type currents were measured as the peak inward current minus the current at the end of the 250 msec step to −20 mV. After the recoding configuration was established there was a pre-compound measurement of current amplitude Compound was added as a 3× solution containing 1% DMSO. After incubation with compound for 10 minutes currents were measured again. The current amplitude after compound addition was divided by the pre-compound current for pulse 10 to determine the traction of current remaining after compound addition. For each compound, 8-point concentration-effect relationships were measured with ½ log serial dilutions.
# human Cav3.2 [2] = biological target: T2, human Cav3.2; assay: Conventional whole cell patch clamp, hCav3.2 current; details: values marked * in Table 10; voltage clamp assay
# Excerpt: as §1
# HEK cells were transiently transfected and then selected for stable heterologous expression of different channel proteins of interest. Calcium channel cell lines expressed a resting potassium current, human Kir2.1, and the pore forming α-subunit of voltage-gated calcium channels. In the case of Cav2.1 cells the auxiliary subunit, β2a, was also expressed. […]
# The holding potential was −100 mV for all protocols. […] Cav3.2 currents were measured as the peak current 10-30 milliseconds after the voltage was stepped to −35 mV. […] For hCav2.1 currents were activated with a 200 millisecond step to 0 mV. hCav2.1 currents were measured from the leak-subtracted traces as the average current between 190 and 200 milliseconds after the step to 0 mV. […] Sodium currents were measured from leak subtracted traces as the peak transient inward current.
# All drug effects were measured after a steady-state effect was achieved. […]
IC50 (human Cav3.2 [1]) [nM],IC50 (human Cav3.2 [2]) [nM],SMILES,EC50 (human GPR119) [nM]
,,COc1cc(C(=O)N2CCC3(CC2)CN(c2ccccc2F)C3c2ccc(Cl)cc2)cc(OC)c1OC (centres unmarked),516
,,COc1cc(C(=O)N2CCC3(CC2)CN(CC(C)C)C3c2ccccc2)cc(OC)c1OC (centres unmarked),882
,,COc1cc(C(=O)N2CCC3(CC2)CN(Cc2ccc(F)cc2F)C3c2ccc(F)cc2)cc(OC)c1OC (centres unmarked),1200
,,COc1cc(C(=O)N2CCC3(CC2)CN(Cc2ccccc2Cl)C3c2ccccc2)cc(OC)c1OC (centres unmarked),1260
,,O=C(c1ccc2c(c1)OCCCO2)N1CCC2(CC1)CN(Cc1ccc(F)cc1F)C2c1ccc(F)cc1 (centres unmarked),1300
,,COc1cc(C(=O)N2CCC3(CC2)CN(c2ccc(C)cc2)C3c2ccc(Cl)cc2)cc(OC)c1OC (centres unmarked),1340
58,,CC[C@H](C)[C@H](NC(=O)N1CCC2(CC1)CN(CCC(C)C)C2c1ccc(F)cc1)C(=O)OC (some centres unmarked),
68,202,CC(C)CCN1CC2(CCN(C(=O)NC34CC5CC(CC(C5)C3)C4)CC2)C1c1ccc(F)cc1 (centres unmarked),
70,,CC(C)CCN1CC2(CCN(C(=O)Nc3cc(F)cc(F)c3)CC2)C1c1ccc(F)cc1 (centres unmarked),
76,,CC[C@H](C)[C@H](NC(=O)N1CCC2(CC1)CN(C(C)C)C2c1ccc(-c2ccccc2)cc1)C(=O)OC (some centres unmarked),
24,82,"CC[C@H](C)[C@H](NC(=O)N1CCC2(CC1)CN(C(C)C)C2c1ccc(Br)cc1)C(=O)OC (single isomer, unassigned)",
38,,"CC(C)N1CC2(CCN(C(=O)Nc3cccc(Cl)c3)CC2)C1c1ccc(Cl)cc1 (single isomer, unassigned)",
44,,"CC(C)N1CC2(CCN(C(=O)Nc3cc(F)cc(F)c3)CC2)C1c1ccc(Br)cc1 (single isomer, unassigned)",
49,,"CC(C)N1CC2(CCN(C(=O)Nc3ccc(Cl)cc3)CC2)C1c1ccc(Cl)cc1 (single isomer, unassigned)",
50,,"CC(C)N1CC2(CCN(C(=O)Nc3cccc(C#N)c3)CC2)C1c1ccc(Cl)cc1 (single isomer, unassigned)",
58,,"CC(C)N1CC2(CCN(C(=O)Nc3cccc(F)c3)CC2)C1c1ccc(Br)cc1 (single isomer, unassigned)",
64,,"CC(C)N1CC2(CCN(C(=O)Nc3cccc(F)c3)CC2)C1c1ccc(Cl)cc1 (single isomer, unassigned)",
85,,"CC[C@H](C)[C@H](NC(=O)N1CCC2(CC1)CN(C(C)C)C2c1ccc(Cl)cc1)C(=O)OC(C)(C)C (single isomer, unassigned)",
60,,"O=C(Nc1cc(F)cc(F)c1)N1CCC2(CC1)CN(c1ccc(F)c(Cl)c1)C2c1ccccn1 (single isomer, unassigned)",
76,,"CC(C)CCN1CC2(CCN(C(=O)Nc3cc(F)cc(F)c3)CC2)C1c1ccc(F)cc1 (single isomer, unassigned)",
45,,"CC[C@H](C)[C@H](NC(=O)N1CCC2(CC1)CN(CCC(C)C)C2c1ccc(F)cc1)C(=O)OC (single isomer, unassigned)",
